# Experimental data taken from US20220378801A1, “NOVEL COMPOUNDS” (AC Immune SA, priority 2019, published 2022).
# Columns and labels:
# Assay type in all cases: cell-based
# NLRP3 inflammasome [1] = biological target: T1, NLRP3 inflammasome (Homo sapiens, UniProt Q96P20); assay: NLRP3 inflammasome activation assay, IL-1 beta release, human monocyte-like cells, MSU stimulation; design: endogenous in cells; settings: PMA-differentiated, LPS-primed human monocyte-like cells; MSU 150 μg/ml 3 h; IL-1β by AlphaLISA
# Method: (§1) The following assays can be used to determine the inhibitory activity of test compounds on the NLRP3 inflammasome using common stimuli nigericin (Invivogen) or monosodium urate crystals (MSU)(Invivogen).
# (§2) Human monocyte-like cells are cultured in RPM11640 Glutamax medium supplemented with 10% heat inactivated FCS and 50 U/ml penicillin-streptomycin (Life Technologies). HMDM (Human Monocyte Derived Macrophage) are isolated from human blood with leucosep tubes and classical monocyte isolation kit from Miltenyi based on negative selection.
# (§3) NLRP3 inflammasome activation assays Human monocyte-like cells are seeded at 75000 per well in a 96 well plate and differentiated overnight into macrophages with 10 ng/ml PMA (Phorbol Myristate Acetate). The following day, medium containing 10 ng/ml LPS (lipopolysaccharide) is added. After 3 h of LPS priming, concentrations of test compound in the range from 100 μM to 6 nM are added 30 min prior to NLRP3 inflammasome stimulation with Nigericin 3.75 μM or MSU 150 μg/ml for 3 h.
# (§4) For IL-1β quantification, supernatants are analyzed using AlphaLISA kits according to the manufacturer's instructions (Perkin Elmer AlphaLISA AL220F).
# (§5) IC50 (concentration corresponding to 50% inhibition) were determined using GraphPad Prism 8.
# NLRP3 inflammasome [2] = biological target: T1, NLRP3 inflammasome; assay: NLRP3 inflammasome activation assay, IL-1 beta release, HMDM cells, Nigericin stimulation; settings: LPS-primed primary human monocyte-derived macrophages; Nigericin 2.5 μM 3 h; IL-1β by AlphaLISA
# Method: as §1, §2
# (§6) Primary human monocyte-derived macrophages (HMDM) are seeded at 30000 per well in a 96 well plate and differentiated into macrophages with 10 ng/ml Human M-CSF (Macrophage Colony Stimulating Factor). At DIV 8 (Day in vitro) medium containing 10 ng/ml LPS is added. After 3 h of LPS priming, concentrations of test compound in the range from […] are added 30 min prior to NLRP3 inflammasome stimulation with Nigericin 2.5 μM or MSU 150 μg/ml for 3 h.
# as §4, §5
# NLRP3 inflammasome [3] = biological target: T1, NLRP3 inflammasome; assay: NLRP3 inflammasome activation assay, IL-1 beta release, HMDM cells, MSU stimulation; settings: LPS-primed primary human monocyte-derived macrophages; MSU 150 μg/ml 3 h; IL-1β by AlphaLISA
# Method: as §1, §2, §6, §4, §5
# NLRP3 inflammasome [4] = biological target: T1, NLRP3 inflammasome; assay: NLRP3 inflammasome activation assay, IL-1 beta release, human monocyte-like cells, Nigericin stimulation; design: endogenous in cells; settings: PMA-differentiated, LPS-primed human monocyte-like cells; Nigericin 3.75 μM 3 h; IL-1β by AlphaLISA
# Method: as §1, §2, §3, §4, §5
# T1 sequence (Q96P20 whole entry): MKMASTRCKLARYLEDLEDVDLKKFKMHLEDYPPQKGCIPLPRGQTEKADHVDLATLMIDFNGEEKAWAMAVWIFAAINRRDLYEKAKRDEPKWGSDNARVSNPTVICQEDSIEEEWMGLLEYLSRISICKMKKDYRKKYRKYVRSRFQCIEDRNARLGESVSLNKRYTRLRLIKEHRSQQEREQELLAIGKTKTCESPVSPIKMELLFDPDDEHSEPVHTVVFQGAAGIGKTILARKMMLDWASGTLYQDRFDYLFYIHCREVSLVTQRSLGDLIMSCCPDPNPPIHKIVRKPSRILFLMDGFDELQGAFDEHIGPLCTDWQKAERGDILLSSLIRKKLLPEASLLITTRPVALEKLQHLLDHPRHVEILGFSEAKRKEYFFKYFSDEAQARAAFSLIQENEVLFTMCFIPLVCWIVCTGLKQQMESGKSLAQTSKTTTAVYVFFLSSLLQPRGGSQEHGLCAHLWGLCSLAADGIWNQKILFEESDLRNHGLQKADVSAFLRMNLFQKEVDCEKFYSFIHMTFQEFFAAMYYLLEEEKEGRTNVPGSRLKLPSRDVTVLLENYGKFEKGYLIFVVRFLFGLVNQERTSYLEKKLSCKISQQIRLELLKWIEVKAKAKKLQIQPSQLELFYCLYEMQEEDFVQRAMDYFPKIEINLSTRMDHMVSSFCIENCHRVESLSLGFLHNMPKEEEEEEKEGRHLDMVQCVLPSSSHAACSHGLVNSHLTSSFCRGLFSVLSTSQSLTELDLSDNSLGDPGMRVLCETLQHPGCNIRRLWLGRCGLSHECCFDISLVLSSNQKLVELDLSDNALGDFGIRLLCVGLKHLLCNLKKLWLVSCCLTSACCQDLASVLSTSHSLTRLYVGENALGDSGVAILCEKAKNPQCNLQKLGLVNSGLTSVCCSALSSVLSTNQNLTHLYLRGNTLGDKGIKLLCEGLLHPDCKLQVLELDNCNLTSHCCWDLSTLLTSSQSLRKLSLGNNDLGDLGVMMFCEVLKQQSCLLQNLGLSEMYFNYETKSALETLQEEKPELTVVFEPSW
SMILES,IC50 (NLRP3 inflammasome [1]) [nM],IC50 (NLRP3 inflammasome [2]) [nM],IC50 (NLRP3 inflammasome [3]) [nM],IC50 (NLRP3 inflammasome [4]) [nM]
"O=C(Nc1c2c(cc3c1CCC3)CCC2)NS1(=O)=NC(=O)c2sccc21 (single isomer, unassigned) [Example 35]",< 1000,,1000 to 10000,1000 to 10000
O=C(Nc1c2c(cc3c1CCC3)CCC2)NS1(=O)=NC(=O)c2ccccc2C1 (stereo not drawn) [Example 3],< 1000,1000 to 10000,< 1000,1000 to 10000
O=C(N=S1(=O)NC(=O)c2ccc(Br)cc21)Nc1c2c(cc3c1CCC3)CCC2 (stereo not drawn) [Example 24],< 1000,,1000 to 10000,1000 to 10000
Cc1cccc2c1C(=O)N=S2(=O)NC(=O)Nc1c2c(cc3c1CCC3)CCC2 (stereo not drawn) [Example 14],< 1000,1000 to 10000,1000 to 10000,1000 to 10000
O=C(Nc1c2c(cc3c1CCC3)CCC2)NS1(=O)=NC(=O)c2cc(Cl)ccc21 (stereo not drawn) [Example 12],1000 to 10000,,1000 to 10000,1000 to 10000
COc1cc(-c2cccc(C(C)C)c2NC(=O)NS2(=O)=NC(=O)c3ccc(C(C)(C)O)cc32)ccn1 (stereo not drawn) [Example 31],< 1000,1000 to 10000,1000 to 10000,< 1000
"O=C(Nc1c2c(cc3c1CCC3)CCC2)NS1(=O)=NC(=O)c2c(F)cccc21 (single isomer, unassigned) [Example 61]",< 1000,,,1000 to 10000
N#Cc1ccc2c(c1)C(=O)N=S2(=O)NC(=O)Nc1c2c(cc3c1CCC3)CCC2 (stereo not drawn) [Example 10],< 1000,,,1000 to 10000
O=C(Nc1cc2c(c3c1CCC3)CCC2)NS1(=O)=NC(=O)c2ccccc21 (stereo not drawn) [Example 6],1000 to 10000,,1000 to 10000,1000 to 10000
"O=C(N=S1(=O)NC(=O)c2ccccc21)Nc1c2c(cc3c1CCC3)CCC2 (single isomer, unassigned) [Example 1b]",< 1000,1000 to 10000,< 1000,1000 to 10000
COC(=O)c1ccc2c(c1)S(=O)(=NC(=O)Nc1c3c(cc4c1CCC4)CCC3)NC2=O (stereo not drawn) [Example 9],1000 to 10000,,,1000 to 10000
"CC(C)(O)c1ccc2c(c1)S(=O)(=NC(=O)Nc1c3c(cc4c1CCC4)CCC3)NC2=O (stereo not drawn) [Example 30, 1-(1,2,3,5,6,7-hexahydro-s-indacen-4-yl)-3-(6-(2-hydroxypropan-2-yl)-1-oxido-3-oxo-3H-1,4-benzo[d]isothiazol-1-yl)urea]",< 1000,< 1000,< 1000,< 1000
O=C(Nc1c2c(cc3c1CCC3)CCC2)NS1(=O)=NC(=O)c2cc(F)ccc21 (stereo not drawn) [Example 26],< 1000,,< 1000,1000 to 10000
"COc1cc(-c2ccc3c(c2NC(=O)NS2(=O)=NC(=O)c4sccc42)CCC3)ccn1 (single isomer, unassigned) [Example 52]",1000 to 10000,,,1000 to 10000
COc1ccc2c(c1)S(=O)(NC(=O)Nc1c3c(cc4c1CCC4)CCC3)=NC2=O (stereo not drawn) [Example 15],< 1000,,,< 1000
O=C(Nc1c2c(cc3c1CCC3)CCC2)NS1(=O)=NC(=O)c2ccncc21 (stereo not drawn) [Example 7],< 1000,,1000 to 10000,1000 to 10000
"O=C(Nc1c2c(cc3c1CCC3)CCC2)NS1(=O)=NC(=O)c2cc(Cl)ccc21 (single isomer, unassigned) [Example 44]",< 1000,,,1000 to 10000
"O=C(Nc1c2c(cc3c1CCC3)CCC2)NS1(=O)=NC(=O)c2ccc(F)cc21 (single isomer, unassigned) [Example 63]",< 1000,,1000 to 10000,1000 to 10000
O=C(Nc1c2c(cc3c1CCC3)CCC2)NS1(=O)=NC(=O)c2c(F)cccc21 (stereo not drawn) [Example 25],< 1000,,< 1000,1000 to 10000
"O=C(N=S1(=O)NC(=O)c2cccnc21)Nc1c2c(cc3c1CCC3)CCC2 (single isomer, unassigned) [Example 32]",< 1000,,,1000 to 10000
"O=C(Nc1c2c(cc3c1CCC3)CCC2)NS1(=O)=NC(=O)c2cc(Br)ccc21 (single isomer, unassigned) [Example 59]",1000 to 10000,,,1000 to 10000

# Results, then the compound that gave them:
IC50 (NLRP3 inflammasome [1]) [nM],IC50 (NLRP3 inflammasome [2]) [nM],IC50 (NLRP3 inflammasome [3]) [nM],IC50 (NLRP3 inflammasome [4]) [nM],SMILES
< 1000,1000 to 10000,< 1000,< 1000,"O=C(Nc1c2c(cc3c1CCC3)CCC2)NS1(=O)=NC(=O)c2cc(F)ccc21 (single isomer, unassigned) [Example 62]"
< 1000,,1000 to 10000,1000 to 10000,"O=C(Nc1c2c(c(F)c3c1CCC3)CCC2)NS1(=O)=NC(=O)c2sccc21 (single isomer, unassigned) [Example 54]"
< 1000,1000 to 10000,< 1000,1000 to 10000,O=C(Nc1c2c(c(F)c3c1CCC3)CCC2)NS1(=O)=NC(=O)c2ccccc21 (stereo not drawn) [Example 5]
< 1000,,1000 to 10000,1000 to 10000,"CC(C)(O)c1ccc2c(c1)S(=O)(=NC(=O)Nc1c3c(cc4c1CCC4)CCC3)NC2=O (single isomer, unassigned) [Example 40]"
< 1000,< 1000,< 1000,< 1000,O=C(Nc1c2c(c(F)c3c1CCC3)CCC2)NS1(=O)=NC(=O)c2sccc21 (stereo not drawn) [Example 19]
< 1000,1000 to 10000,1000 to 10000,1000 to 10000,O=C(Nc1c2c(cc3c1CCC3)CCC2)NS1(=O)=NC(=O)c2c(Cl)cccc21 (stereo not drawn) [Example 11]
< 1000,,1000 to 10000,1000 to 10000,O=C(N=S1(=O)NC(=O)c2cccnc21)Nc1c2c(cc3c1CCC3)CCC2 (stereo not drawn) [Example 2]
< 1000,< 1000,< 1000,< 1000,"O=C(Nc1c2c(cc3c1CCC3)CCC2)NS1(=O)=NC(=O)c2sccc21 (single isomer, unassigned) [Example 36]"
< 1000,< 1000,< 1000,< 1000,"COc1ccc2c(c1)S(=O)(NC(=O)Nc1c3c(cc4c1CCC4)CCC3)=NC2=O (single isomer, unassigned) [Example 48]"
< 1000,< 1000,< 1000,< 1000,"O=C(Nc1c2c(c(F)c3c1CCC3)CCC2)NS1(=O)=NC(=O)c2sccc21 (single isomer, unassigned) [Example 55]"
< 1000,1000 to 10000,< 1000,1000 to 10000,O=C(N=S1(=O)NC(=O)c2ccccc21)Nc1c2c(cc3c1CCC3)CCC2 (racemic) [Example 1]
< 1000,1000 to 10000,,< 1000,"O=C(Nc1c2c(cc3c1CCC3)CCC2)NS1(=O)=NC(=O)c2nc(Cl)ccc21 (single isomer, unassigned) [Example 64]"
< 1000,1000 to 10000,< 1000,< 1000,"O=C(Nc1c2c(cc3c1CCC3)CCC2)NS1(=O)=NC(=O)c2ccccc2C1 (single isomer, unassigned) [Example 34]"
